Experimental data from PMC7756341, “Liposomal FRET Assay Identifies Potent Drug‐Like Inhibitors of the Ceramide Transport Protein (CERT)” (Chemistry (Weinheim an Der Bergstrasse, Germany), 2020).
Values joined by “and” are separate entries in the source; they are usually repeats but may differ in a detail not shown here. Equal entries are not always repeated.

Key:
HeLa cells [1] = test: Sphingolipid content of treated HeLa cells by quantitative mass spectrometry; type: cell-based; details: for Cer16 / Cer18 / Cer20 / Cer22 / Cer24 / Cer24:1 / Cer total / S1P / SM16 / SM18 / SM20 / SM22 / SM24 / SM24:1 / SM total / Sph / ratio total SM/Cer: HeLa, 42h, single replicates; for Cer16 / Cer18 / Cer20 / Cer22 / Cer24 / Cer24:1 / Cer total / S1P / SM16 / SM18 / SM20 / SM22 / SM24 / SM24:1 / SM total / Sph: 500.000 cells per sample
Procedure: 5.2 Cellular experiment for lipidomic analysis
Hela cells were cultured in six well plates (177000 cells per well) under standard growth conditions (DMEM with 4mM L-glutamine, 10% FBS, 1% Penicillin-Streptomycin; CO2 incubator with […]
37°C, 5% CO2). […]
After incubation, […]
the adherent cells were washed twice with ice-cold PBS and harvested by treatment with trypsin.
Cells were counted using a Countess II cell counter ( Invitrogen) and adjusted to 500.000 cells per sample. Each sample was then treated as described below.
6. Details for experimental lipidomics
Cells were subjected to lipid extraction using 1.5 mL methanol/chloroform (2:1, v:v) as described. The extraction solvent contained C17-ceramide (Cer17) and C16 -d31-sphingomyelin (d31-SM16) (both Avanti Polar Lipids, Alabaster, USA) as internal standards. Chromatographic separations were achieved on a 1260 Infinity HPLC (Agilent Technologies, Waldbronn, Germany) equipped with a Poroshell 120 EC-C8 column (3.0 × 150 mm, 2.7 µm; Agilent Technologies). A mobile phase system consisting of water (solvent A) and acetonitrile/methanol (1:1, v:v; solvent B), both acidified with 0.1% formic acid, was used for gradient elution at an initial composition of 40:60 (A:B, v:v) and a flow rate of 0.5 mL/min. MS/MS analyses were carried out using a 6490 triple-quadrupole mass spectrometer (Agilent Technologies) operating in the positive electrospray ionization mode (ESI+). The following ion source parameters were set: sheath gas temperature, 375 °C; sheath gas flow, 12 L/min of nitrogen; nebulizer pressure, 30 psi; drying gas temperature, 200 °C; drying gas flow, 15 L/min of nitrogen; capillary voltage, 4000 V; nozzle voltage, 1500 V; iFunnel high pressure RF voltage, 150 V and iFunnel low pressure RF voltage, 60 V. The following mass transitions were recorded (collision energies of 25 eV for all transitions): ceramides: m/z […]
with MassHunter Software (Agilent Technologies). Significance of differences between two samples was calculated by student’s t -test. Asterisks indicate significant differences between treated and untreated samples: * p<0.05; ** p<0.01; *** p<0.005.
Table S1. Sphingolipid content of treated cells.
(§1) (1 picture or pasted object on this page, not shown here)

HeLa cells [2] = test: Cellular localization of BODIPY-ceramide by confocal microscopy; type: cell-based; details: 10 µM inhibitor, 2 h
Procedure: 5.1 Cellular Localization of BODIPY-Ceramide
HeLa cells were seeded in 8 well chamber slides (ibidi µ-Slide 8 Well) in RPMI 1640 medium supplemented with 10% (v/v) heat‐inactivated FCS, 1 mM sodium pyruvate and 2 mM L-glutamine at 37 °C and 5% (v/v) CO2 in a humidified incubator. The day after, cells were incubated with inhibitors for 2 h at a concentration of 10 µM or left untreated by replacing the medium with fresh medium supplemented with the respective inhibitors. After 2 h of incubation, BODIPY FL C5-ceramide (Thermo Fisher) was added to a final concentration of 0,25 µM and imaging was immediately done using an LSM 780 laser scanning confocal microscope (Carl Zeiss). No additional wash steps were performed. After 1 h of incubation, DNA was counterstained using Hoechst 33342. For quantification of BODIPY-Ceramide trafficking, cells were transfected with pECFP-GalT the day before inhibitor incubation for the expression of an eCFP fusion of the human galactosyltransferase (GalT; amino acids 1-60), which localizes at the Golgi apparatus. After incubation with the respective inhibitors (see above), cells were imaged at 30 min post addition of BODIPY FL C5-ceramide. Mean BODIPY intensities of regions of interest surrounding eCFP-GalT-positive Golgi stacks were measured (40 cells per biological replicate, 4 biological replicates in total) using ImageJ software (Rasband, W.S., ImageJ, U. S. National Institutes of Health, Bethesda, Maryland, USA, https://imagej.nih.gov/ij/, 1997-2018) and divided by the total BODIPY intensity detected in the field of view. Quantification (Fig 10B) is expressed as normalized intensity ratio (GA/total).
Figure S10. A Uptake of BODIPY FL C5-ceramide to HeLa cells assessed by normalized fluorescence intensity B Distribution of BODIPY FL C5-ceramide by normalized fluorescence […]
as §1
Figure S11. BODIPY-Ceramide trafficking. Confocal images showing distribution of BODIPY FL C5-ceramide (green) and Golgi apparatus costaining (eCFP-GalT; blue) in HeLa cells pretreated with 10 µM of respective inhibitors or left untreated. Figures show representative images (n = 4 biological replicates with 40 cells per biological replicate); scale bars, 10 µm.

For `CCCC(=O)OCOC(=O)C1=C(C)NC(C)=C(C(=O)OC)C1c1cccc(Cl)c1Cl` (stereo not drawn) [6B11, Clevidipine butyrate], the “effect on SM/Cer rate” value (HeLa cells [1]; HeLa cells) was “dramatically increased”, the “effect on total sphingomyelin” value (HeLa cells [1]; HeLa cells, 48 hours, serum-reduced medium) was “no significant changes” and the Cer16 (HeLa cells [1]; 1 µM) was 35,47 pmol/sample and 30,33 pmol/sample and 32,28 pmol/sample. For the same molecule, the Cer18 (HeLa cells [1]; 1 µM) was 3,21 pmol/sample and 3,62 pmol/sample and 2,31 pmol/sample, the Cer20 (HeLa cells [1]; 1 µM) was 0,82 pmol/sample and 1,87 pmol/sample and 0,75 pmol/sample and the Cer22 (HeLa cells [1]; 1 µM) was 6,64 pmol/sample and 6,96 pmol/sample and 5,21 pmol/sample. The Cer24 (HeLa cells [1]; 1 µM) was 21,95 pmol/sample and 20,24 pmol/sample and 18,20 pmol/sample, the “Cer24:1” value (HeLa cells [1]; 1 µM) was 41,58 pmol/sample and 36,60 pmol/sample and 35,42 pmol/sample and the Cer total (HeLa cells [1]; 1 µM) was 109,68 pmol/sample and 101,56 pmol/sample and 92,23 pmol/sample. For the same molecule, the S1P (HeLa cells [1]; 1 µM) was 1,30 pmol/sample (2×) and 1,12 pmol/sample, the SM16 (HeLa cells [1]; 1 µM) was 1664,57 pmol/sample and 1753,19 pmol/sample and 1827,88 pmol/sample and the SM18 (HeLa cells [1]; 1 µM) was 49,35 pmol/sample and 48,17 pmol/sample and 50,13 pmol/sample. The SM20 (HeLa cells [1]; 1 µM) was 16,44 pmol/sample and 17,01 pmol/sample and 16,12 pmol/sample, the SM22 (HeLa cells [1]; 1 µM) was 97,77 pmol/sample and 109,23 pmol/sample and 104,57 pmol/sample and the SM24 (HeLa cells [1]; 1 µM) was 148,40 pmol/sample and 164,36 pmol/sample and 157,65 pmol/sample. The “SM24:1” value (HeLa cells [1]; 1 µM) was 734,55 pmol/sample and 781,78 pmol/sample and 776,18 pmol/sample, the SM total (HeLa cells [1]; 1 µM) was 2711,09 pmol/sample and 2873,72 pmol/sample and 2932,53 pmol/sample and the Sph (HeLa cells [1]; 1 µM) was 2,93 pmol/sample and 3,14 pmol/sample and 2,69 pmol/sample. For the same molecule, the “ratio total SM/Cer” value (HeLa cells [1]; 1 µM) was 29,4 and 26,2 and 28,9, the Cer16 (HeLa cells [1]; 2.5 µM) was 31,11 pmol/sample and 34,56 pmol/sample and 32,33 pmol/sample and the Cer18 (HeLa cells [1]; 2.5 µM) was 2,90 pmol/sample and 3,36 pmol/sample and 2,45 pmol/sample. For the same molecule, the Cer20 (HeLa cells [1]; 2.5 µM) was 1,10 pmol/sample and 1,04 pmol/sample and 0,67 pmol/sample, the Cer22 (HeLa cells [1]; 2.5 µM) was 6,09 pmol/sample and 6,54 pmol/sample and 4,24 pmol/sample and the Cer24 (HeLa cells [1]; 2.5 µM) was 19,85 pmol/sample and 19,17 pmol/sample and 13,13 pmol/sample. For the same molecule, the “Cer24:1” value (HeLa cells [1]; 2.5 µM) was 35,16 pmol/sample and 36,98 pmol/sample and 34,53 pmol/sample, the Cer total (HeLa cells [1]; 2.5 µM) was 96,21 pmol/sample and 101,65 pmol/sample and 87,36 pmol/sample and the S1P (HeLa cells [1]; 2.5 µM) was 1,11 pmol/sample (2×) and 1,10 pmol/sample. The SM16 (HeLa cells [1]; 2.5 µM) was 1754,78 pmol/sample and 1844,30 pmol/sample and 1802,54 pmol/sample, the SM18 (HeLa cells [1]; 2.5 µM) was 52,01 pmol/sample and 48,63 pmol/sample and 47,35 pmol/sample and the SM20 (HeLa cells [1]; 2.5 µM) was 16,63 pmol/sample and 16,52 pmol/sample and 14,33 pmol/sample. The SM22 (HeLa cells [1]; 2.5 µM) was 104,73 pmol/sample and 101,64 pmol/sample and 87,68 pmol/sample, the SM24 (HeLa cells [1]; 2.5 µM) was 164,67 pmol/sample and 154,96 pmol/sample and 126,92 pmol/sample and the “SM24:1” value (HeLa cells [1]; 2.5 µM) was 701,62 pmol/sample and 752,78 pmol/sample and 753,00 pmol/sample. For the same molecule, the SM total (HeLa cells [1]; 2.5 µM) was 2780,44 pmol/sample and 2845,61 pmol/sample and 2919,05 pmol/sample, the Sph (HeLa cells [1]; 2.5 µM) was 3,54 pmol/sample and 2,83 pmol/sample and 2,99 pmol/sample and the “ratio total SM/Cer” value (HeLa cells [1]; 2.5 µM) was 31,8 and 29,6 and 28,7. For the same molecule, the Cer16 (HeLa cells [1]; 5 µM) was 29,66 pmol/sample and 34,26 pmol/sample and 31,66 pmol/sample, the Cer18 (HeLa cells [1]; 5 µM) was 2,65 pmol/sample and 3,21 pmol/sample and 2,71 pmol/sample and the Cer20 (HeLa cells [1]; 5 µM) was 0,74 pmol/sample and 0,90 pmol/sample and 0,79 pmol/sample. For the same molecule, the Cer22 (HeLa cells [1]; 5 µM) was 5,38 pmol/sample and 6,67 pmol/sample and 6,09 pmol/sample, the Cer24 (HeLa cells [1]; 5 µM) was 17,46 pmol/sample and 20,37 pmol/sample and 20,18 pmol/sample and the “Cer24:1” value (HeLa cells [1]; 5 µM) was 36,92 pmol/sample and 40,53 pmol/sample and 39,54 pmol/sample. The Cer total (HeLa cells [1]; 5 µM) was 92,81 pmol/sample and 105,93 pmol/sample and 100,96 pmol/sample, the S1P (HeLa cells [1]; 5 µM) was 1,11 pmol/sample and 1,25 pmol/sample and 1,08 pmol/sample and the SM16 (HeLa cells [1]; 5 µM) was 1762,30 pmol/sample and 1782,59 pmol/sample and 1722,69 pmol/sample. For the same molecule, the SM18 (HeLa cells [1]; 5 µM) was 53,21 pmol/sample and 52,89 pmol/sample and 50,26 pmol/sample, the SM20 (HeLa cells [1]; 5 µM) was 17,74 pmol/sample and 18,28 pmol/sample and 16,92 pmol/sample and the SM22 (HeLa cells [1]; 5 µM) was 109,54 pmol/sample and 111,84 pmol/sample and 106,91 pmol/sample. For the same molecule, the SM24 (HeLa cells [1]; 5 µM) was 166,35 pmol/sample and 172,87 pmol/sample and 164,46 pmol/sample, the “SM24:1” value (HeLa cells [1]; 5 µM) was 783,66 pmol/sample and 796,71 pmol/sample and 771,15 pmol/sample and the SM total (HeLa cells [1]; 5 µM) was 2892,80 pmol/sample and 2935,19 pmol/sample and 2832,39 pmol/sample. The Sph (HeLa cells [1]; 5 µM) was 2,83 pmol/sample and 2,13 pmol/sample and 3,03 pmol/sample, the “ratio total SM/Cer” value (HeLa cells [1]; 5 µM) was 31,2 and 27,7 and 28,1 and the “effect on intracellular distribution of BODIPY-Cer” value (HeLa cells [2]) was “only minor effects”.
